Data on ten compounds can be found in US11464802B2, “3-substituted piperidine compounds for Cbl-b inhibition, and use thereof” (Nurix Therapeutics, Inc., priority 2019, dated 2022).

For one assay, the target named is Cbl-b (Homo sapiens (Human), UniProt Q13191). As to the kind of experiment: Cbl-b displacement assay (Cbl-b inhibition assay), TR-FRET probe displacement, Biological Example 1. The class given is binding. How it is done:
Candidate compounds were evaluated for their ability to bind and inhibit Cbl-b, an E3 ubiquitin-protein ligase, as evidenced by their ability to displace a fluorophore-labeled probe (Example 46) bound to Cbl-b.
The ability of candidate compounds to displace a known inhibitor and thereby inhibit Cbl-b activity was measured by monitoring the interaction of Cbl-b with a fluorophore-labeled probe in the presence of the candidate compound. A truncated variant of Cbl-b (UniProt number Q13191; SEQ ID NO:1) containing an Avitag at its N-terminus was co-expressed with BirA biotin ligase and purified using a standard protocol (see Dou et al., Nature Structural and Molecular Biology 8: 982-987, 2013; Avidity LLC).
Fluorescently-labeled inhibitor probe was synthesized and tagged with BODIPY FL (Example 46). Cbl-b displacement assays were performed in a 384-well plate at room temperature in a 10 μL reaction volume by pre-incubating 0.5 nM Cbl-b or 0.125 nM Cbl-b (final concentration, indicated as “High” and “Low”, respectively) in an assay buffer containing 20 mM HEPES pH 7.5, 150 mM NaCl, 0.01% Triton X-100, 0.01% BSA, and 0.5 mM TCEP in the presence of a candidate compound in 1% DMSO (final concentration) for 1 hour. After incubation in the presence of the candidate compound, the plate was incubated for an additional 1 hour in the presence of an approximate EC40 binding saturation consisting of 150 nM fluorescently-labeled inhibitor probe and 2 nM Streptavidin-Terbium (Cisbio) (final concentrations). Following the 1 hour incubation, the plates were read for TR-FRET signal at 520/620 nM using an Envision plate reader (Perkin Elmer).

Assay [1] relates to primary human total T-cells. Nature of the assay: Primary human total T-cell activation: IL-2 secretion, Biological Example 2. In kind it is cell-based. To be noted: 48 hours, fold change over baseline; for fold induction at 0.3 µM: inhibitor 0.3 μM; for fold induction at 1 µM: inhibitor 1 μM; for fold induction at 3 µM: inhibitor 3 μM.
The subject of assay [2] is primary human total T-cells. As to the kind of experiment: Primary human total T-cell activation: CD25 surface staining, Biological Example 2. The class given is cell-based. Conditions: 48 hours, fold change over baseline; for fold induction at 0.3 µM: inhibitor 0.3 μM; for fold induction at 1 µM: inhibitor 1 μM; for fold induction at 3 µM: inhibitor 3 μM.
The mark [3] stands for this setting: 0.125 nM Cbl-b final concentration (Low), read-out: Cbl-b activity IC50 (Low).
The mark [4] stands for this setting: anti-CD3/anti-CD28 co-stimulation.
Setting [5] is: anti-CD3/anti-CD28 co-stimulation, read-out: IL-2 secretion CD3/CD28 1 μM.
Setting [6] is: anti-CD3 alone, read-out: IL-2 secretion CD3 1 μM.
Setting [7] is: anti-CD3/anti-CD28 co-stimulation, read-out: CD25 staining CD3/CD28 1 μM.
The mark [8] stands for this setting: anti-CD3 alone, read-out: CD25 staining CD3 1 μM.
Where [9] appears, read: Cbl-b concentration (High or Low) not given, read-out: IC50 values in the Cbl-b inhibition assay of Biological Example 1.
Where [10] appears, read: 0.5 nM Cbl-b final concentration (High), read-out: Cbl-b activity IC50 (High).

Like-named read-outs stand apart in the source and are kept apart here.

Chain of Cbl-b (Q13191 36-427): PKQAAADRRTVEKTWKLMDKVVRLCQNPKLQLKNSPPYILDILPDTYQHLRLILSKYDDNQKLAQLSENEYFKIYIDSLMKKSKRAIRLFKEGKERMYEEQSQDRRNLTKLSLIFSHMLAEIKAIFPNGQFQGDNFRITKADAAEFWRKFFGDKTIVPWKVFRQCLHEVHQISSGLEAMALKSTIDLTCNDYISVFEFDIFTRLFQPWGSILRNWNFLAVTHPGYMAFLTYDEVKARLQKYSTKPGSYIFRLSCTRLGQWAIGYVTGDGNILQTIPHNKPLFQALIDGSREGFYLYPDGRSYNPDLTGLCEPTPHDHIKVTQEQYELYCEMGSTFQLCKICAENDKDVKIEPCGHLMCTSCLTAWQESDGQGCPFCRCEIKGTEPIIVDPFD

As usually defined, the IC50 is the concentration at which inhibition is half-maximal. As for `C[C@H]1CCCN(Cc2cc3c(c(C(F)(F)F)c2)CN(c2cccc(C4(Cc5nncn5C)COC4)c2)C3=O)[C@H]1C` (relative stereo) [Compound 19, 6-((cis-2,3-dimethylpiperidin-1-yl)methyl)-2-(3-(3-((4-methyl-4H-1,2,4-triazol-3-yl)methyl)oxetan-3-yl)phenyl)-4-(trifluoromethyl)isoindolin-1-one], the IC50 at Cbl-b (setting [3]) lay in the range of 1 to 5 nM. In addition, the fold induction at 0.3 µM in assay [1] (setting [4]) is less than 10; in assay [2] (setting [4]) it was 1.25 to 1.39. Also, the fold induction at 1 µM was 11 to 15 in assay [1] (setting [5]), less than 0.33 in assay [1] (setting [6]), 1.25 to 1.39 in assay [2] (setting [7]) and 1.05 to 1.14 in assay [2] (setting [8]). Also, the fold induction at 3 µM lay within 0.34 to 0.66 in assay [1] (anti-CD3 alone) and 1.05 to 1.14 in assay [2] (anti-CD3 alone).
Consider `Cn1cnnc1CC1(c2cccc(N3Cc4c(cc(CN5C[C@@H](C(F)(F)F)C[C@H](C(F)(F)F)C5)cc4C(F)(F)F)C3=O)c2)COC1` (relative stereo) [Compound 20, trans-6-{[3,5-bis(trifluoromethyl)piperidin-1-yl]methyl}-2-(3-{3-[(4-methyl-1,2,4-triazol-3-yl)methyl]oxetan-3-yl}phenyl)-4-(trifluoromethyl)-3H-isoindol-1-one], for which the IC50 on Cbl-b (setting [3]) lay in the range of 1 to 5 nM.
`C[C@H]1C[C@H](CO)CN(Cc2cc3c(c(C(F)(F)F)c2)CN(c2cccc(C4(Cc5nncn5C)COC4)c2)C3=O)C1` (relative stereo) [Compound 22, trans-6-{[3-(hydroxymethyl)-5-methylpiperidin-1-yl]methyl}-2-(3-{3-[(4-methyl-1,2,4-triazol-3-yl)methyl]oxetan-3-yl}phenyl)-4-(trifluoromethyl)-3H-isoindol-1-one]: the IC50 at Cbl-b (setting [3]) and at Cbl-b (setting [9]) was less than 1 nM each time. Further, the fold induction at 0.3 µM is greater than 15 in assay [1] (setting [4]) and greater than 1.39 in assay [2] (setting [4]). The fold induction at 1 µM in assay [1] (setting [5]) is greater than 15; in assay [1] (setting [6]), greater than 0.66; in assay [2] (setting [7]) it was greater than 1.39; in assay [2] (setting [8]), less than 1.04. In addition, the fold induction at 3 µM in assay [1] (anti-CD3 alone) was greater than 0.66; in assay [2] (anti-CD3 alone) it was less than 1.04.
On to `C[C@H]1C[C@@H](CO)CN(Cc2cc3c(c(C(F)(F)F)c2)CN(c2cccc(C4(Cc5nncn5C)COC4)c2)C3=O)C1` (relative stereo) [Compound 23, cis-6-{[3-(hydroxymethyl)-5-methylpiperidin-1-yl]methyl}-2-(3-{3-[(4-methyl-1,2,4-triazol-3-yl)methyl]oxetan-3-yl}phenyl)-4-(trifluoromethyl)-3H-isoindol-1-one], for which the concentration for half-maximal inhibition (IC50) on Cbl-b (setting [3]) and at Cbl-b (setting [9]) was less than 1 nM throughout. The fold induction at 0.3 µM was greater than 15 in assay [1] (setting [4]) and greater than 1.39 in assay [2] (setting [4]). The fold induction at 1 µM in assay [1] (setting [5]) was greater than 15; in assay [1] (setting [6]) it was greater than 0.66; in assay [2] (setting [7]), greater than 1.39; in assay [2] (setting [8]), 1.05 to 1.14. The fold induction at 3 µM in assay [1] (anti-CD3 alone) is greater than 0.66; in assay [2] (anti-CD3 alone), 1.05 to 1.14.
As for `Cn1cnnc1CC1(c2cccc(N3Cc4c(cc(CN5CCCC(C)(F)C5)cc4C(F)(F)F)C3=O)c2)COC1` (stereo in doubt) [Compound 5, (R)-6-((3-fluoro-3-methylpiperidin-1-yl)methyl)-2-(3-(3-((4-methyl-4H-1,2,4-triazol-3-yl)methyl)oxetan-3-yl)phenyl)-4-(trifluoromethyl) isoindolin-1-one], the IC50 at Cbl-b (setting [3]) is 5.1 to 100 nM. Moreover, the fold induction at 0.3 µM was 11 to 15 in assay [1] (setting [4]) and greater than 1.39 in assay [2] (setting [4]). In addition, the fold induction at 1 µM in assay [1] (setting [5]) was greater than 15; in assay [1] (setting [6]), less than 0.33; in assay [2] (setting [7]), greater than 1.39; in assay [2] (setting [8]), greater than 1.14. Further, the fold induction at 3 µM in assay [1] (anti-CD3 alone) was 0.34 to 0.66; in assay [2] (anti-CD3 alone), greater than 1.14.
As for `Cn1cnnc1CC1(c2cccc(N3Cc4c(cc(CN5CCCC(C)(F)C5)cc4C(F)(F)F)C3=O)c2)COC1` (stereo in doubt) [Compound 6, (S)-6-((3-fluoro-3-methylpiperidin-1-yl)methyl)-2-(3-(3-((4-methyl-4H-1,2,4-triazol-3-yl)methyl)oxetan-3-yl)phenyl)-4-(trifluoromethyl)isoindolin-1-one], the IC50 at Cbl-b (setting [3]) was in the range of 5.1 to 100 nM. Further, the fold induction at 0.3 µM in assay [1] (setting [4]) is less than 10; in assay [2] (setting [4]), greater than 1.39. For the same compound, the fold induction at 1 µM was greater than 15 in assay [1] (setting [5]), less than 0.33 in assay [1] (setting [6]), greater than 1.39 in assay [2] (setting [7]) and greater than 1.14 in assay [2] (setting [8]). Also, the fold induction at 3 µM is 0.34 to 0.66 in assay [1] (anti-CD3 alone) and greater than 1.14 in assay [2] (anti-CD3 alone).
Consider `C[C@@H]1CCCN(Cc2cc3c(c(C(F)(F)F)c2)CN(c2cccc(C4(Cc5nncn5C)COC4)c2)C3=O)C1` [Compound 3, (R)-2-(3-(3-((4-methyl-4H-1,2,4-triazol-3-yl)methyl)oxetan-3-yl)phenyl)-6-((3-methylpiperidin-1-yl)methyl)-4-(trifluoromethyl)isoindolin-1-one], for which the IC50 on Cbl-b (setting [10]) and at Cbl-b (setting [9]) was 1 to 5 nM each time. The fold induction at 0.3 µM lay within 11 to 15 in assay [1] (setting [4]) and 1.25 to 1.39 in assay [2] (setting [4]). Besides, the fold induction at 1 µM in assay [1] (setting [5]) is greater than 15; in assay [1] (setting [6]), 0.34 to 0.66; in assay [2] (setting [7]) it was 1.25 to 1.39; in assay [2] (setting [8]), 1.05 to 1.14. Also, the results for the fold induction at 3 µM in assay [1] (anti-CD3 alone) and in assay [2] (anti-CD3 alone) were 0.34 to 0.66 and 1.05 to 1.14, respectively.
For `CC1CN(Cc2cc3c(c(C(F)(F)F)c2)CN(c2cccc(C4(Cc5nncn5C)CC4)c2)C3=O)CCC1(F)F` (stereo not shown) [Compound 24, 6-((4,4-difluoro-3-methylpiperidin-1-yl)methyl)-2-(3-(1-((4-methyl-4H-1,2,4-triazol-3-yl)methyl)cyclopropyl)phenyl)-4-(trifluoromethyl)isoindolin-1-one], the IC50 at Cbl-b (setting [10]) and on Cbl-b (setting [9]) was less than 1 nM each time.
`CC1CN(Cc2cc3c(c(C(F)(F)F)c2)CN(c2cccc(C4([C@H](F)c5nncn5C)CC4)c2)C3=O)CCC1(F)F` (stereo partly drawn) [Compound 25, 6-((4,4-difluoro-3-methylpiperidin-1-yl)methyl)-2-(3-(1-((S)-fluoro(4-methyl-4H-1,2,4-triazol-3-yl)methyl)cyclopropyl)phenyl)-4-(trifluoromethyl)isoindolin-1-one]: the IC50 at Cbl-b (setting [10]) and at Cbl-b (setting [9]) was 1 to 5 nM throughout.
With `CC1CN(Cc2cc3c(c(C(F)(F)F)c2)CN(c2cccc(C4([C@@H](F)c5nncn5C)CC4)c2)C3=O)CCC1(F)F` (stereo partly drawn) [Compound 26, 6-((4,4-difluoro-3-methylpiperidin-1-yl)methyl)-2-(3-(1-((R)-fluoro(4-methyl-4H-1,2,4-triazol-3-yl)methyl)cyclopropyl)phenyl)-4-(trifluoromethyl)isoindolin-1-one], the IC50 on Cbl-b (setting [10]) and at Cbl-b (setting [9]) was 1 to 5 nM each time.
